Reference: US8658649B2, “Kinase inhibitor” (Sanofi, priority 2006, dated 2014)

Key:
[1] = test system: Collagen-induced arthritis (CIA); assay: Rat collagen induced arthritis, therapeutic dosing; assay type: in vivo
Protocol: Immunization and Challenge: Female Lewis rats were immunized on day 0 and challenged on day 7 with cII from bovine nasal mixed with Freund's incomplete adjuvant at a final collagen concentration of 1.0 mg/ml. The animals were injected at the base of the tail with 400 μg of cII.
Therapeutic Dosing Regimen: The compound of Formula I (10 and 30 mg/kg, p.o., b.i.d.) was orally administered starting on day 12 and continued through day 21.
Joint Pathology Ankle joint swelling was measured to the nearest 0.01 mm by using electronic digital calipers. Measurements were recorded 7 times throughout the study starting on day 6 and ending on day 21. Body weights were recorded on the same days. On day 21, hind paws were removed at the hairline just above the ankle and fixed in 10% neutral buffered formalin.
MicroCT analysis: Ankle joints were examined using a cone-beam μCT scanner. […] In ankle joints, the ratio of bone surface to bone volume, describing the complexity of bone surface in a certain volume, was analyzed.
Statistical Analysis For joint swelling/inflammation, data were analyzed using Everstat v.5 software and a 2-way repeated measure ANOVA with Dunnett's post test. MicroCT data were analyzed by Everstat using a 1-way ANOVA and Newman-Keuls multiple comparison test. […]

[2] = test system: hematological malignant cell lines; assay: Viability assay (MTS), panel of hematological malignant cell lines; assay type: cell-based
Protocol: This method is to determine the viability of a liquid tumor cell line following treatment with a test compound. Tumor cells are maintained in suspension at log phase growth. On the day of use, cells are resuspended to a density of 0.05 to 0.1 million/ml and cells are incubated in 96 well plate with the test compounds for 96 hours. Viability of cells was measured by incubating cells with Promega's MTS reagent. The viability of the cell is proportional to the change in absorbance at 490 nm. By comparing the absorbance between control and compound-treated cells, the impact of the test compounds on the cell viability is determined as a percent of the control cell viability.
Harvest cells in complete RPMI from log-phase cultures at densities of approximately 0.3-0.7 million/ml. Count cells and adjust to 0.1 million/ml in phenol red free cRPMI (For fast growing cells with doubling time of equal or less than 24 hours, e.g. K562, use 0.05 million/ml instead to avoid over-growing).
Transfer triplicates of 100 μl of cells to the wells of 96-well clear plates for a total of 10000 cells/well. Note that each well already contains 10 μl of 10× concentrated test compound prepared as above.
Incubate cells for 72-96 hours at 37° C. in a tissue culture incubator containing 5% CO2.
1. […]
4. Incubate at 370 C until the absorbance at 490 nm for the control cells is >1.5. […]

`CCc1c(-c2ccc(C(C)(C)O)cc2)[nH]c2nccnc12` [compound of Formula I, 2-[4-(7-Ethyl-5H-pyrrolo[2,3-b]pyrazin-6-yl)-phenyl]-propan-2-ol] was tested, and the “bone erosion (ratio of bone surface to bone volume), MicroCT” value ([1]; 10 mg/kg or 30 mg/kg, therapeutic dosing, vs vehicle) was “significant decrease in bone erosion”, the ankle swelling/inflammation ([1]; 10 and 30 mg/kg p.o. b.i.d. from day 12, day 15-21) was “significantly reduced ankle swelling/inflammation” and the “anti-proliferation activity in the two MCL cell lines” value ([2]; Jeko-1 and Granta-519) was “consistently active”. For the same compound, the “hematological malignant cell lines against which the compound is inhibitory” value ([2]; MTS assay, panel of Table 4) was 6 out of 15.
